How the values were obtained:
[1] = tested on: Broccoli construct (RNA, aptamer) GGGAGAUGCUCCCAGUUACAUUCGUGUAGCUGGCCGUGCGAGACGGUCGGGUCCAUAGCUAAUUCGUUAGUUAUGUCGAGUAGAGUGUGGGCUCGUACGGGCUGGUGAAGCCUCCACGCCAGCGAGCGUCUCCCGCAUGGCAACGCGACUGAAGGAGGCACGGUCGGCCAUCGGUUUCGACCGGUGGCGGUAGAGCCUUCGGGCUUUACCCGUUGUCAUGC; experiment: fluorescence titration of RNA with fluorophore; details: 125 mM KCl, 1 mM MgCl2; 1x TB assembly buffer; 20 nM RNA; fluorophore 1 nM to 2 µM; apparent
[2] = tested on: 2H-AE construct (RNA, other) GGAAUUCAGGAGCUCGGGAGCGUCCACUGCUCCUGAGCGCUCCAGUGGACGGAGCCCUGGUGAAGCCUCCACGCCAGGUCCUGGAUUCCGCAUGUAUCGAGGACUGAAGGAGGCACGGUCCCACGGGCUCCGAGACGUGGAGUCCGUGUCCGCACGUCUCGCGGAUCGAUGCAUGC; experiment: fluorescence activation; details: 125 mM KCl, 1 mM MgCl2; 1x TB assembly buffer; no fluorescence activation
[3] = tested on: Mango construct (RNA, aptamer) GGGAGAUCGUCCUAAGCGCUUUCGAGCGUUUAGCCUGGGUCGCGAAGGGACGGUGCGGAGAGGAGAGCGACUCAGGGAUGGUGAAGCCUCCACGCCAUCGACGGUCUCCCGAUACUCAUCGCGACUGAAGGAGGCACGGUCGGCAUUGUACUUCGGUACGAUGCGCAAGCGACUUCGGUCGUUUGCCGAUGGGUAUC; experiment: fluorescence activation; details: 125 mM KCl, 1 mM MgCl2; 1x TB assembly buffer; EC50 given as N/A; titration to 2 µM
[4] = tested on: Spinach construct (RNA, aptamer) GGGAGAUGCUCCCAGUUACAUUCGUGUAGCUGGCCGUGCGGUAAGGACGGGUCCCUAGCUAAUUCGUUAGUUAGGUUGAGUAGAGUGUGAGACCGUACGGGCUGGUGAAGCCUCCACGCCAGCGAGCGUCUCCCGCAUGGCAACGCGACUGAAGGAGGCACGGUCGGCCAUCGGUUUCGACCGGUGGCGGUAGAGCCUUCGGGCUUUACCCGUUGUCAUGC; experiment: fluorescence titration of RNA with fluorophore; details: 125 mM KCl, 1 mM MgCl2, 1x TB assembly buffer, 20 nM RNA, apparent
[5] = tested on: Mango construct (RNA, aptamer) GGGAGAUCGUCCUAAGCGCUUUCGAGCGUUUAGCCUGGGUCGCGAAGGGACGGUGCGGAGAGGAGAGCGACUCAGGGAUGGUGAAGCCUCCACGCCAUCGACGGUCUCCCGAUACUCAUCGCGACUGAAGGAGGCACGGUCGGCAUUGUACUUCGGUACGAUGCGCAAGCGACUUCGGUCGUUUGCCGAUGGGUAUC; experiment: fluorescence titration of RNA with fluorophore; details: 125 mM KCl, 1 mM MgCl2; 1x TB assembly buffer; 20 nM RNA; fluorophore 1 nM to 2 µM; apparent

Row | SMILES | EC50 [1] [nM] | binding [2] | binding [3] | EC50 ([4]; fluorophore 1 nM to 2 µM) [nM] | EC50 [5] [nM] | EC50 ([4]; fluorophore 1 nM to 2 µM (value above range)) [nM]
1 | CC1=N/C(=C\c2cc(F)c(O)c(F)c2)C(=O)N1CC(F)(F)F | 598.9 | no | no | 337.5 | – | –
2 | CN1C=CC(=CC=Cc2oc3ccccc3[n+]2CC(=O)NCCOCCOCCOCCNC(=O)CCCC[C@@H]2SC[C@@H]3NC(=O)N[C@@H]32)c2ccccc21 | 1700 | – | – | – | 25.6 | 3920

From paper PMC5750238 (2018)
